# Assay results taken from patent US10370360B2, “Small-molecule inhibitors targeting discoidin domain receptor 1 and uses thereof” (priority 2014, dated 2019).
# Legend:
# Type in all cases: biochemical
# c-Kit = c-Kit (Homo sapiens (Human), UniProt P10721); assay: FRET-based Z'-Lyte kinase assay, c-kit; conditions: 300 μM ATP
# DDR2 = DDR2 (Homo sapiens (Human), UniProt Q16832); assay: LanthaScreen Eu kinase activity assay, DDR2; conditions: 100 nM ATP
# DDR1 = DDR1 (Homo sapiens (Human), UniProt Q08345); assay: LanthaScreen Eu kinase activity assay, DDR1; conditions: 100 nM ATP
# Sequence of DDR1 (Q08345 19-913): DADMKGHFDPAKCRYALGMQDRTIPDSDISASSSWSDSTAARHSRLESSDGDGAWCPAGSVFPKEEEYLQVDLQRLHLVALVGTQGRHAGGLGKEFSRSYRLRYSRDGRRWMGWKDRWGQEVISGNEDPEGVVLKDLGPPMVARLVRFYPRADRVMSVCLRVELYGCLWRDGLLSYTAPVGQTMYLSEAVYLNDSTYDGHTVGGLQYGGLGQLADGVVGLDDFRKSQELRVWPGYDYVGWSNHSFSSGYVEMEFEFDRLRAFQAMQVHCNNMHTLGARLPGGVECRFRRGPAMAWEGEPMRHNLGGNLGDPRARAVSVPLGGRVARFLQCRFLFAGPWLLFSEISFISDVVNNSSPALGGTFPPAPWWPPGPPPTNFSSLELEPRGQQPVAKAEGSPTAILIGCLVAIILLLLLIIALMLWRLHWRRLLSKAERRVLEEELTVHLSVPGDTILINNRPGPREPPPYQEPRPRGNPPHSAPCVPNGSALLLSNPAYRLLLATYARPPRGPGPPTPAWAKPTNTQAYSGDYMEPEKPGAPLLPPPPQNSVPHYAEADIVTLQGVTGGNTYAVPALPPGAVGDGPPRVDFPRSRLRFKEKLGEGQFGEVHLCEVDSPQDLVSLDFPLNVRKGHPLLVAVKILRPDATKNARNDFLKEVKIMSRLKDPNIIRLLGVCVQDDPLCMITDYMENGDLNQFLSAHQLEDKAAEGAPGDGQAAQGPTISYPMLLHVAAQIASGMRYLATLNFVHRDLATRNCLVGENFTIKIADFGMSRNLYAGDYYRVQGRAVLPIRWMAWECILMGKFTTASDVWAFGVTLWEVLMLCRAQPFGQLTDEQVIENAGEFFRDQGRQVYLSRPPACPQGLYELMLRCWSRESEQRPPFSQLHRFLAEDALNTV
# Sequence of DDR2 (Q16832 22-855): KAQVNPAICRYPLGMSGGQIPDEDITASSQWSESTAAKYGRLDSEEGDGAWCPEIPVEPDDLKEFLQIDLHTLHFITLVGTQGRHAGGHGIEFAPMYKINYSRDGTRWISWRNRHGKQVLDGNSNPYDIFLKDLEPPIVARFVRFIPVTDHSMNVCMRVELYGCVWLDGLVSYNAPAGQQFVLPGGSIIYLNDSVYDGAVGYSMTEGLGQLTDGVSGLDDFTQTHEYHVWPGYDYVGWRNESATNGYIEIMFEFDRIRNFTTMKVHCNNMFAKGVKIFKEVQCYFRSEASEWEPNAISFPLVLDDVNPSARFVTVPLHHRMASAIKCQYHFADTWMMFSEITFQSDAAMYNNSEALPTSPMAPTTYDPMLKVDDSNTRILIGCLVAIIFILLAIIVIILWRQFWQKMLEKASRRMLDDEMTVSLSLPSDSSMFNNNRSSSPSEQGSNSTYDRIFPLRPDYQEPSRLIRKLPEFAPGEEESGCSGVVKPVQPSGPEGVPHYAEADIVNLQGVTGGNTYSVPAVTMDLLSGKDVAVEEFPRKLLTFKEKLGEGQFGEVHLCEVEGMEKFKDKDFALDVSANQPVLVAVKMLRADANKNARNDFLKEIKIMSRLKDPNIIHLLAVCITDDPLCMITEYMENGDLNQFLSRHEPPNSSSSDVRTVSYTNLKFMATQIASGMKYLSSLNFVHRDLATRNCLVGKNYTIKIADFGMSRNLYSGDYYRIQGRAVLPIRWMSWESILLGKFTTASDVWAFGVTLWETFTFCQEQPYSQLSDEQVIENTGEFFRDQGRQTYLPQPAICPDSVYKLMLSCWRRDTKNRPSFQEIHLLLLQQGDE
# Sequence of c-Kit (P10721 26-976): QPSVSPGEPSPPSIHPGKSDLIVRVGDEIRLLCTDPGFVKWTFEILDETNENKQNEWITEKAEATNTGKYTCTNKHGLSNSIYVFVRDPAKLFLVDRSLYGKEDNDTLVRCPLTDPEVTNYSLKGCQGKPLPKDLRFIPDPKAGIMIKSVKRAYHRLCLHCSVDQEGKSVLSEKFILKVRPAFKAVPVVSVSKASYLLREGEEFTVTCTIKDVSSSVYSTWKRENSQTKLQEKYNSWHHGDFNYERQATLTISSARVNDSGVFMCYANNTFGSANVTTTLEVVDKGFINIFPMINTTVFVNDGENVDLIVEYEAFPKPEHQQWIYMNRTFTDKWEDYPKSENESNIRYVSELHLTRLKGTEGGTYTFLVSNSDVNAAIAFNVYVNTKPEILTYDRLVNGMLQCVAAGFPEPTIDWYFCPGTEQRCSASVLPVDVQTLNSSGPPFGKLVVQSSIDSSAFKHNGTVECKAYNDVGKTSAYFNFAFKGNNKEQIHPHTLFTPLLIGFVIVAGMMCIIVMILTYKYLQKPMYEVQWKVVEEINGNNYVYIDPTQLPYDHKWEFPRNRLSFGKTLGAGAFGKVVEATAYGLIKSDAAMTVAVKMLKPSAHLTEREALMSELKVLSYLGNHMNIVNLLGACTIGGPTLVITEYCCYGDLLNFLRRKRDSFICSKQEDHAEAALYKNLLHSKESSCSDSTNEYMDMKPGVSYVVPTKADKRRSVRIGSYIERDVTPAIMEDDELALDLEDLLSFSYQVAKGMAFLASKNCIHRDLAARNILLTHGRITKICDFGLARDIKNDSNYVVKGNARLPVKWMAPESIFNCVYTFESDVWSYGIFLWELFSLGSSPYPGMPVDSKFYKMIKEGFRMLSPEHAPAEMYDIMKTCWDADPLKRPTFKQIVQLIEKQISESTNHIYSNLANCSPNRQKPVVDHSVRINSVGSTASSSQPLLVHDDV
SMILES,IC50 (c-Kit) [µM],IC50 (DDR2; cells printed in μM) [µM],IC50 (DDR2; cells without unit) [µM],IC50 (DDR1) [µM]
"C[C@@H]1CN(c2cncnc2)Cc2cc(C(=O)Nc3cc(CN4CCN(C)CC4)cc(C(F)(F)F)c3)ccc21 [Example 37, (S)-4-methyl-N-(3-((4-methylpiperazin-1-yl)methyl)-5-(trifluoromethyl)phenyl)-2-(pyrimidin-5-yl)-1,2,3,4-tetrahydroisoquinoline-7-carboxamide]",> 10,,,
"CN1CCN(Cc2cc(C(=O)Nc3ccc4c(c3)CN(c3cncnc3)CC4)cc(C(F)(F)F)c2)CC1 [Example 36, 3-((4-methylpiperazin-1-yl)methyl)-N-(2-(pyrimidin-5-yl)-1,2,3,4-tetrahydroisoquinolin-7-yl)-5-(trifluoromethyl)benzamide]",> 10,7.8,,
"CC1CN(c2cncnc2)Cc2cc(C(=O)Nc3cc(CN4CC[C@@H](N(C)C)C4)cc(C(F)(F)F)c3)ccc21 (stereo partly drawn) [Example 24, N-(3-(((R)-3-(dimethylamino)pyrrolidin-1-yl)methyl)-5-(trifluoromethyl)phenyl)-4-methyl-2-(pyrimidin-5-yl)-1,2,3,4-tetrahydroisoquinoline-7-carboxamide]",> 10,,0.672,
"C[C@H]1CN(c2cncnc2)Cc2cc(C(=O)Nc3cc(CN4CCN(C)CC4)cc(C(F)(F)F)c3)ccc21 [Example 38, (R)-4-methyl-N-(3-((4-methylpiperazin-1-yl)methyl)-5-(trifluoromethyl)phenyl)-2-(pyrimidin-5-yl)-1,2,3,4-tetrahydroisoquinoline-7-carboxamide]",> 10,,,
"CC1CN(c2cncnc2)Cc2cc(C(=O)Nc3cc(CN4CC[C@H](N(C)C)C4)cc(C(F)(F)F)c3)ccc21 (stereo partly drawn) [Example 25, N-(3-(((S)-3-(dimethylamino)pyrrolidin-1-yl)methyl)-5-(trifluoromethyl)phenyl)-4-methyl-2-(pyrimidin-5-yl)-1,2,3,4-tetrahydroisoquinoline-7-carboxamide]",> 10,,0.862,
"CCC1CN(c2cncnc2)Cc2cc(C(=O)Nc3cc(CN4CCN(C)CC4)cc(C(F)(F)F)c3)ccc21 (stereo not shown) [Example 34, 4-ethyl-N-(3-((4-methylpiperazin-1-yl)methyl)-5-(trifluoromethyl)phenyl)-2-(pyrimidin-5-yl)-1,2,3,4-tetrahydroisoquinoline-7-carboxamide]",> 10,2,,
"CC1CN(c2cncnc2)Cc2cc(C(=O)Nc3cc(CN(C)CCN(C)C)cc(C(F)(F)F)c3)ccc21 (stereo not shown) [Example 23, N-(3-(((2-(dimethylamino)ethyl)(methyl)amino)methyl)-5-(trifluoromethyl)phenyl)-4-methyl-2-(pyrimidin-5-yl)-1,2,3,4-tetrahydroisoquinoline-7-carboxamide]",> 10,1.2,,
"CC1CN(c2cccnc2)Cc2cc(C(=O)Nc3cc(CN4CCN(C)CC4)cc(C(F)(F)F)c3)ccc21 (stereo not shown) [Example 6, 4-methyl-N-(3-((4-methylpiperazin-1-yl)methyl)-5-(trifluoromethyl)phenyl)-2-(pyridin-3-yl)-1,2,3,4-tetrahydroisoquinoline-7-carboxamide]",> 10,1.2,,
"CC1CN(c2cncnc2)Cc2cc(C(=O)Nc3ccc(CN4CCN(C)CC4)c(C(F)(F)F)c3)ccc21 (stereo not shown) [Example 12, 4-methyl-N-(4-((4-methylpiperazin-1-yl)methyl)-3-(trifluoromethyl)phenyl)-2-(pyrimidin-5-yl)-1,2,3,4-tetrahydroisoquinoline-7-carboxamide]",> 10,,0.334,0.0199
"CC1CN(c2cncnc2)Cc2cc(C(=O)Nc3cc(CN4CCN(C)CC4)c(F)c(C(F)(F)F)c3)ccc21 (stereo not shown) [Example 27, N-(4-fluoro-3-((4-methylpiperazin-1-yl)methyl)-5-(trifluoromethyl)phenyl)-4-methyl-2-(pyrimidin-5-yl)-1,2,3,4-tetrahydroisoquinoline-7-carboxamide]",> 10,1.4,,
"CN1CCN(Cc2cc(NC(=O)c3ccc4c(c3)CN(c3cccnc3)CC4)cc(C(F)(F)F)c2)CC1 [Example 4, N-(3-((4-methylpiperazin-1-yl)methyl)-5-(trifluoromethyl)phenyl)-2-(pyridin-3-yl)-1,2,3,4-tetrahydroisoquinoline-7-carboxamide]",> 10,4.3,,
"Cc1c(CN2CCN(C)CC2)cc(NC(=O)c2ccc3c(c2)CN(c2cncnc2)CC3C)cc1C(F)(F)F (stereo not shown) [Example 9, 4-methyl-N-(4-methyl-3-((4-methylpiperazin-1-yl)methyl)-5-(trifluoromethyl)phenyl)-2-(pyrimidin-5-yl)-1,2,3,4-tetrahydroisoquinoline-7-carboxamide]",> 10,1.1,,
"CC1CN(c2cncnc2)Cc2cc(C(=O)Nc3cc(CN4CCN(C)CC4)c(Cl)c(C(F)(F)F)c3)ccc21 (stereo not shown) [Example 8, N-(4-chloro-3-((4-methylpiperazin-1-yl)methyl)-5-(trifluoromethyl)phenyl)-4-methyl-2-(pyrimidin-5-yl)-1,2,3,4-tetrahydroisoquinoline-7-carboxamide]",> 10,,0.915,
"CC1CN(c2cncnc2)Cc2cc(C(=O)Nc3cc(CN4CCN(C)CC4)cc(-c4ccccc4)c3)ccc21 (stereo not shown) [Example 29, 4-methyl-N-(5-((4-methylpiperazin-1-yl)methyl)biphenyl-3-yl)-2-(pyrimidin-5-yl)-1,2,3,4-tetrahydroisoquinoline-7-carboxamide]",> 10,1.4,,0.0446
"CN1CCN(Cc2cc(NC(=O)c3ccc4c(c3)CN(c3cncnc3)CC4)cc(C(F)(F)F)c2)CC1 [Example 3, N-(3-((4-methylpiperazin-1-yl)methyl)-5-(trifluoromethyl)phenyl)-2-(pyrimidin-5-yl)-1,2,3,4-tetrahydroisoquinoline-7-carboxamide]",> 10,8,,
"CN1CCN(Cc2cc(NC(=O)c3ccc4c(c3)CN(c3cnc5ccccc5c3)CC4)cc(C(F)(F)F)c2)CC1 [Example 5, N-(3-((4-methylpiperazin-1-yl)methyl)-5-(trifluoromethyl)phenyl)-2-(quinolin-3-yl)-1,2,3,4-tetrahydroisoquinoline-7-carboxamide]",8.7,,,
"CC1CN(c2cncnc2)Cc2cc(C(=O)Nc3cc(CN4CCN(C)CC4)cc(C(F)(F)F)c3)ccc21 (stereo not shown) [Example 1, 4-methyl-N-(3-((4-methylpiperazin-1-yl)methyl)-5-(trifluoromethyl)phenyl)-2-(pyrimidin-5-yl)-1,2,3,4-tetrahydroisoquinoline-7-carboxamide]",> 10,,,
"CC1CN(c2cncnc2)Cc2cc(C(=O)Nc3cc(CN4CCN(C)CC4)cc(C4CCCC4)c3)ccc21 (stereo not shown) [Example 32, N-(3-cyclopentyl-5-((4-methylpiperazin-1-yl)methyl)phenyl)-4-methyl-2-(pyrimidin-5-yl)-1,2,3,4-tetrahydroisoquinoline-7-carboxamide]",> 10,,0.306,
"CC1CN(c2cncnc2)Cc2cc(C(=O)Nc3cc(CN4CCN(C)CC4)cc(C4CC4)c3)ccc21 (stereo not shown) [Example 31, N-(3-cyclopropyl-5-((4-methylpiperazin-1-yl)methyl)phenyl)-4-methyl-2-(pyrimidin-5-yl)-1,2,3,4-tetrahydroisoquinoline-7-carboxamide]",> 10,1.1,,0.089
